# Key:
# [1] = particle size after high pressure homogenization (photon correlation spectroscopy); assay type: physicochemical
# Protocol: PX-18 powder was dispersed in a 1% Tween 80 carrier. The composition of the formulation was 1% PX-18, 1% Tween 80 and 98% water. The obtained macrosuspension was passed through a micron LAB 40 homogenizer (APV Homogenizer Systems, Unna/Germany) at 1500 bar, applying one homogenization cycle. The particle size was determined by photon correlation spectroscopy (PCS, Malvern Zetasizer Nano ZS, Malvern Instruments, United Kingdom), The mean particle size (z-average) was 745 nm.
# A second macrosuspension of PX-18 was prepared as described above, and subsequently homogenized. The homogenization parameters were 1500 bar and 20 homogenization cycles.
# A suspension of 1% PX-13 was prepared in an aqueous preparation of 2% Planta Care 2000. After homogenization applying 20 cycles at 1500 bar, a PCS mean diameter of 33 nm was obtained.
# [2] = solubility in aqueous solutions; assay type: physicochemical
# From the text: Despite the apparent efficacy of PX compounds in treating various disease conditions, their use is limited due to a problem of extremely low solubility. […] This very poor solubility generally leads to insufficient bioavailability alter administration, likely because the dissolution velocity is too slow.
# [3] = test system: ischemia-induced impaired vasodilation; test: ischemia-induced impaired vasodilation; assay type: in vivo, newborn piglets; conditions: for effect on impaired hypercapnic vasodilation after global ischemia: FIG. 11
# Protocol: (§1) The ability of PX-18 nanoparticles to influence 1) basal and induced arterial dilation; and 2) ischemia-induced impaired vasodilation (due to bradykinin, N-methyl-D-aspartic acid (NMDA) and ischemia-reperfusion) was studied in newborn piglets (1-2-day old, n=44). The piglets were anesthetized, ventilated, and equipped with arterial and venous catheters and a closed cranial window. Xanoparticulate PX-18 was administered iv at a concentration of 6 mg/kg.
# The protocol for testing the effect of ischemia-induced impaired vasodilation is preseted in FIG. 8. […] In addition, intravenous but not topical treatment with PX-18 restored impaired hypercapnic vasodilation after global ischemia (FIG. 11).
# [4] = test system: Rabbits; conditions: rabbit, in vivo, iv
# [5] = solubility in solvents; assay type: physicochemical
# From the text: PX-18, a specific inhibitor of sPLA2, is a fatty moiety feat is soluble in methylene chloride, chloroform and ethyl acetate. […] Its solubility in water is typically very low.
# [6] = test system: hippocampus neurons after ischemia; test: common carotid artery occlusion, alive hippocampal neurons; assay type: in vivo, Gerbils; conditions: 1% nanoparticle formulation, 40-50 nm, subcutaneously 5 min, 24 hr and 48 hr after ischemia, day 4
# Protocol: Common carotid arteries of Gerbils (6 gerbils per group) were occluded for 5 minutes to induce ischemia. Thereafter, a nanoparticle formulation of PX-18 (1% formulation, particles size of 40-50 nanometers) was administered subcutaneously 5 min, 24 hr and 48 hr after ischemia. After surgery, the gerbils were returned to their cages where, upon awakening, they were able to resume their normal locomotor functions. They were sacrificed on day 4. The hippocampus was sectioned and the number of alive neurons was assessed. In the ischemic animals, sPLA2 unregulated within 24 hr after ischemia and most neurons were dead by 4 days. PX-18 reduced neuronal damage in a dose dependent manner, providing approximately 30% protection at a dose of 30 mg/kg and 45% protection at a dose of 60 mg/kg, […]
# [7] = test system: ischemia-reperfusion in the heart; test: infarct size after regional ischemia/reperfusion in the heart; assay type: in vivo, Rabbits; conditions: PX-18 60 mg/kg ip; P<0.05
# Protocol: The protective effect of PX-18 during ischemia-reperfusion in the heart was assessed. Since opening of mitochondrial KATP channels are essential components of ischemic tolerance induced by preconditioning in heart, the role of these channels in PX-18-induced cardioprotection was also examined. Briefly, 180 mg of PX-18 was put into a small homogenizing tube containing 3 ml of ethylene glycol in a homogenizing tube and warming it to about 50° C. Several bursts of sonication (about 10 seconds) were applied in a nitrogen gas bath to minimize oxidation, followed by homogenization. This procedure was repeated 4-5 times until a uniform cloudy proportion that was easily injected through a needle was obtained. Procedures of this type generate PX-18 particles of a size in the micrometer range. Rabbits were treated with the sonicated preparation, of PX-18 (60 mg/kg ip). 30 minutes later the hearts were subjected to 30 minutes of regional ischemia followed by 3 hours of reperfusion. Mitochondrial KATP channel blocker 5-hydroxydecanoate (5-HD, 5 mg/kg iv) was given 10 min before ischemia/reperfusion. Infarct size was measured by computer morphometry of tetrazolium stained sections.
# [8] = dissolution velocity: amount suspended in water after 5 minutes (gravimetry); assay type: physicochemical
# Protocol: 1 ml of macrosuspension (PX powder, dispersed in water) and 1 ml of PX-18 nanosuspension (diameter 40 nm) was added to 9 ml of de-mineralised water and stirred with a magnetic stirrer for 5 minutes. Each 10 ml sample was then filtered to remove non-suspended PX-18, and the amount of suspended PX-18 was determined by gravimetry. While the concentration of PX-18 in both suspensions was 1% (w/w), about 91% of the nanoparticles had become suspended within 5 minutes compared to just 8.4% of the macrosuspension.
# To farther assess the importance of nanoparticle size on the dissolution velocity of PX-18, the dissolution velocity of PX-18 nanoparticles with a size of 40 nm was compared to that of PX-18 nanoparticles with a size of 200 nm. The analysis was performed as described above. After 5 minutes, about 91% of the 40 nm particles were suspended, whereas die larger 200 nm nanoparticles were suspended to about 41%.
# [9] = test system: pial arterioles; test: basal and induced pial arteriolar dilation and hemodynamics; assay type: in vivo, newborn piglets
# Protocol: as §1
smiles,measurement,setting,value
CCCCCCCC/C=C\CCCCCCCC(=O)OCC(COC(=O)CCCCCCC/C=C\CCCCCCCC)(COC(=O)CCCCCCC/C=C\CCCCCCCC)NCCS(=O)(=O)O [PX-13],PCS mean diameter,"[1]; 1% PX-13 in aqueous 2% Planta Care 2000, 20 cycles at 1500 bar",33 nm
same,"particle size (PCS, z-average)",[1]; one homogenization cycle at 1500 bar,400-900 nm
same,solubility in aqueous solutions,[2],about 5 μg/ml
CCCCCCCC/C=C\CCCCCCCC(=O)OCCN(CCOC(=O)CCCCCCC/C=C\CCCCCCCC)CCS(=O)(=O)O [PX-18],effect on impaired hypercapnic vasodilation after global ischemia,[3]; intravenous treatment,restored
same,effect on ischemia-induced impaired vasodilation caused by N-methyl-D-aspartic acid,"[3]; iv administered, NMDA 10^−4M, FIG. 10",counteracts
same,effect on ischemia-induced impaired vasodilation caused by bradykinin,"[3]; iv administered, bradykinin 10^−8M, FIG. 9",counteracts
same,effect on impaired hypercapnic vasodilation after global ischemia,[3]; topical treatment,not topical
same,survival,[4],did not survive
same,solubility,[5]; in acetone and methanol,insoluble
same,solubility,[5]; in dimethylsulfoxide (DMSO),limited solubility
same,solubility,"[5]; in methylene chloride, chloroform and ethyl acetate",soluble
same,solubility,[5]; in water,very low
same,protection against neuronal damage,[6]; 30 mg/kg,approximately 30%
same,protection against neuronal damage,[6]; 60 mg/kg,~45%
same,reduction of infarct size versus vehicle,[7],43%
same,solubility in aqueous solutions,[2],approximately 24 μg/ml
same,amount suspended,"[8]; macrosuspension (powder, μm-sized particles), 1% (w/w), 1 ml in 9 ml de-mineralised water, stirred 5 minutes",8.4%
same,amount suspended,"[8]; nanoparticles with a size of 200 nm, after 5 minutes",about 41%
same,time to normalization of MABP and pial arteriole diameter,"[9]; after iv bolus, 6 mg/kg",4 to 6 min
same,effect on basal and hypercapnia-induced (endothelium and COX dependent) pial arterial dilation,"[9]; intravenous, FIG. 6",did not influence
same,pial arteriole dilation,"[9]; iv bolus of nanoparticle formulation, 6 mg/kg, transient",32±1%
same,mean arterial blood pressure (MABP) after bolus,"[9]; iv bolus of nanoparticle formulation, 6 mg/kg, transient decrease from 62±7 mmHg",40±5 mmHg
same,pial arteriole dilation (Mean±SEM),"[9]; nanoparticle formulation, 10^−4M, topically onto the brain surface",16±5%
same,effect on PACAP induced (non-endothelium but COX-dependent) pial arteriolar dilation,"[9]; topical, FIG. 7",impaired

# — patent US20110097410A1, “FORMULATIONS OF PX COMPOUNDS” (priority 2007, published 2011)
